Our source for the IC50 and Emax values is publication PMC7340446, “Optimization of PTH/PTHrP Hybrid Peptides to Derive a Long‐Acting PTH Analog (LA‐PTH)” (JBMR Plus, 2020).

The target of test [1] is T1, human PTHR1 (RG conformation) (Homo sapiens, UniProt Q03431).
T1 construct: expressed in transfected cells; host or cells: COS-7 cells (transient co-transfection; membranes)
T1 sequence (Q03431 27-593): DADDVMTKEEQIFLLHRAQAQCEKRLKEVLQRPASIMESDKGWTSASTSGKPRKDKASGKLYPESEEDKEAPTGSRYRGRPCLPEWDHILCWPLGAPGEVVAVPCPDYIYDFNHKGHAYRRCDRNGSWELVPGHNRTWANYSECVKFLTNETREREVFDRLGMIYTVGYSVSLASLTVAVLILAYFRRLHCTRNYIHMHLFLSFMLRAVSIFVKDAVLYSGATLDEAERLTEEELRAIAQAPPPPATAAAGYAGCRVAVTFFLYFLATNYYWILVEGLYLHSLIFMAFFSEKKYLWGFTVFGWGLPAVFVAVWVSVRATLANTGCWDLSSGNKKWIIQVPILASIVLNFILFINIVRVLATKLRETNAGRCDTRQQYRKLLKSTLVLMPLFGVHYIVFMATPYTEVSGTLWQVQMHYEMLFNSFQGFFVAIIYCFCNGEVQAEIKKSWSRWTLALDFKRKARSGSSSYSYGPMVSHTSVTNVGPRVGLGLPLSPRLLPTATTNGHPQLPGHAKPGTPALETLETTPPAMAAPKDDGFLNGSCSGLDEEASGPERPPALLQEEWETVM
The experiment in a line: Competition binding to the RG conformation of PTHR1.

In test [2] the target is T2, human PTHR1 (Homo sapiens, UniProt Q03431).
T2 construct: expressed in transfected cells
T2 sequence (Q03431 27-593): T1 sequence (Q03431 27-593)
In words: GloSensor cAMP signaling assay in GP‐2.3 cells. It is filed as cell-based. How it is done: GP‐2.3 cells, an HEK‐293 cell‐ (ATCC CRL‐1573) derived cell line that stably expresses the luciferase‐based pGloSensor‐22F (GloSensor) cAMP reporter plasmid (Promega Corp., […], USA) along with the human PTHR1, were cultured in DMEM (Thermo Fisher Scientific, Waltham, MA, USA) supplemented with FBS (10%). Cells were seeded into white 96‐well plates for GloSensor cAMP assays, and used for assay 2 to 3 days after the monolayer became confluent.16 UGS‐56 cells were derived from the UMR106 rat osteoblastic cell line by stably transfecting the cells to express the GloSensor‐cAMP reporter. B64 cells are a derivative of the porcine kidney cell line, LLC‐PK1 that stably expresses the human PTHR1. COS‐7 cells (ATCC CRL‐1661) were seeded into 10‐cm dishes and transiently transfected to express the human PTHR1 with or without a high‐affinity, negative‐dominant Gαs subunit; 2 days after transfection, the cells were harvested for membrane preparations.13 All transfections were performed using the Fugene HD reagent (Promega Corp.).
Changes in cAMP levels were assessed in intact GP‐2.3 or UGS‐56 cells via the (GloSensor) cAMP reporter. The intact cells in white 96‐well plates were preloaded with luciferin in CO2‐independent culture media (Thermo Fisher) for 20 min at room temperature, then treated with a test ligand diluted in the same media and placed into a Envision plate reader (PerkinElmer, Waltham, MA, USA) for an additional 30 min, during which time cAMP‐dependent luminescence was measured at 2‐min intervals (ligand‐on phase). […] For washout responses, the cells were treated as above, and after the ligand‐on phase, the plate was removed from the plate reader, the cells were rinsed with media, then fresh media containing only luciferin was added and luminescence was measured for an additional 90 min (washout phase). EC50 values were determined using the 4‐parameter sigmoidal dose–response equation in Prism 8.0 (GraphPad Software, Inc., La Jolla, CA, USA).
The cells were then removed from the plate reader, rinsed twice with media to remove unbound ligand, and then fresh media containing luciferin but lacking ligand was added and luminescence was assessed for additional 90 min (Ligand wash‐out phase). Data are means (± SEM) of four experiments, each performed in triplicate. Figure S2. […] Panels A‐C represent three separate experiments. […] Figure S3. […] Serum and urine samples obtained from the TPTX and sham control rats of the two‐week daily‐administration experiment shown in Figure 4 were analyzed by ELISA for the indicated markers. A) serum 1,25(OH)2Vitamin‐D3. B) urinary deoxypyridinoline (DpD)/Cre. C) serum FGF23. […] Serum and urine samples obtained from the TPTX and sham control rats of the two‐week daily‐administration experiment shown in Figure 4 were analyzed for total inorganic phosphorus (Pi). […] Figure S5. […] B) The same peptides were assessed at a concentration of 3 nM for the capacity to stimulate cAMP formation in HKRK‐B64 cells (LLC‐PK1 cells stably expressing the hPTHR1, cAMP measured by RIA). […] Data in A and B are means (±SEM) of three experiments, each performed in triplicate or quadruplicate. […] D) The same analogs as in C were assessed at a 3.0 nM concentration for the capacity to stimulate cAMP formation in HKRK‐B64 cells. Data are means (±SEM) of three experiments, each performed in duplicate. […] Data are means (±SEM) of duplicate determinations of a single experiment representative of three others. Click here for additional data file.

Where no end group is shown, it is not given here.

On to “AVAEIQLMHQRAKWIQDLRRRFFLHHLIAEIHTAEI [M‐PTH(1‐14)/PTHrP(15‐36), [Ala^1,3,12,Gln^10,Arg^11,Trp^14]‐PTH(1‐14)/PTHrP(15–36)]”, for which the IC50 in test [1] came out at 0.67 ± 0.05 nM. The maximum response (Emax) in test [2] was 105 ± 4%.

One may read the IC50 as the concentration that inhibits the measured activity by half. Low readings indicate greater potency, high ones weaker potency. Usually Emax stands for the size of the effect at its maximum, as opposed to the concentration needed.
